{"source": "patent US11891634B2", "about": "“PDE5A destabilizing domains” (The Board of Trustees of the Leland Stanford Junior …, priority 2017, dated 2024)", "type_in_all_cases": "cell-based, human", "key": {"[1]": {"system": "HCT 116 cells transduced with the PDE5A DD derived GFP constructs", "experiment": "Response to Vardenafil, GFP expression by FACS in HCT116", "settings": "for MFI / Stabilization ratio with Vardenafil: 48 hours, HCT116", "how_it_was_run": "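HCT116 cells stably carrying lentiviral AcGFP fusions of PDE5A (535-860) mutants, sorted on mCherry, got DMSO or Vardenafil (10 μM, or 0.002–30 μM) for 48 h, and GFP MFI was read by flow cytometry. Basal expression is untreated GFP over parental autofluorescence; the stabilization ratio is treated over untreated MFI.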"}, "[2]": {"system": "HCT 116 cells transduced with the PDE5A DD derived GFP constructs", "experiment": "Response to Tadalafil, GFP expression by FACS in HCT116", "settings": "for MFI / Stabilization ratio with Tadalafil: 48 hours, HCT116", "how_it_was_run": "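HCT116 cells stably transduced (mCherry-sorted) with lentiviral PDE5A DD–AcGFP constructs, exposed to DMSO or Tadalafil 0.01–100 μM for 48 hrs. GFP mean fluorescence by FACS; stabilization ratio = ligand vs no-ligand signal, basal expression = no-ligand signal vs parental autofluorescence.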"}, "[3]": {"system": "HCT116 cells transduced with the constructs", "experiment": "Response to Sildenafil, GFP expression by flow cytometry in HCT116", "settings": "for MFI / Stabilization ratio with Sildenafil: 48 hours, HCT116", "how_it_was_run": "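HCT116 cells stably expressing AcGFP-fused destabilizing domains from a lentiviral mCherry-marked vector (sorted on mCherry) were exposed to sildenafil at 0.01–100 μM for 48 hours. GFP mean fluorescence intensity was measured by flow cytometry.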"}}}
{"substance": "PDE5AN (#53): N-terminal DD 535-860 of PDE5A (E536G, Q589R, C839S), SEQ ID NO. 67, fused to AcGFP", "values": [{"measurement": "MFI", "setting": "[1]; DMSO (no Vardenafil)", "value": 14196}, {"measurement": "Basal (DMSO/Parental)", "setting": "[1]; Table 10, GFP signal without ligand / auto fluorescence of parental HCT-116", "value": 14.0}, {"measurement": "Basal", "setting": "[1]; Table 15, MFI with DMSO / parental HCT116, Vardenafil experiment", "value": 7.27}, {"measurement": "Stabilization ratio with Vardenafil", "setting": "[1]; Vardenafil 0.002 μM vs DMSO", "value": 1.0}, {"measurement": "MFI", "setting": "[1]; Vardenafil 0.002 μM", "value": 14117}, {"measurement": "Stabilization ratio with Vardenafil", "setting": "[1]; Vardenafil 0.005 μM vs DMSO", "value": 1.0}, {"measurement": "MFI", "setting": "[1]; Vardenafil 0.005 μM", "value": 14485}, {"measurement": "Stabilization ratio with Vardenafil", "setting": "[1]; Vardenafil 0.014 μM vs DMSO", "value": 1.1}, {"measurement": "MFI", "setting": "[1]; Vardenafil 0.014 μM", "value": 15735}, {"measurement": "Stabilization ratio with Vardenafil", "setting": "[1]; Vardenafil 0.041 μM vs DMSO", "value": 1.2}, {"measurement": "MFI", "setting": "[1]; Vardenafil 0.041 μM", "value": 17260}, {"measurement": "Stabilization ratio with Vardenafil", "setting": "[1]; Vardenafil 0.123 μM vs DMSO", "value": 1.8}, {"measurement": "MFI", "setting": "[1]; Vardenafil 0.123 μM", "value": 25577}, {"measurement": "Stabilization ratio with Vardenafil", "setting": "[1]; Vardenafil 0.370 μM vs DMSO", "value": 3.1}, {"measurement": "MFI", "setting": "[1]; Vardenafil 0.370 μM", "value": 43744}, {"measurement": "Stabilization ratio with Vardenafil", "setting": "[1]; Vardenafil 1.111 μM vs DMSO", "value": 5.7}, {"measurement": "MFI", "setting": "[1]; Vardenafil 1.111 μM", "value": 81455}, {"measurement": "Stabilization ratio with Vardenafil", "setting": "[1]; Vardenafil 3.333 μM vs DMSO", "value": 9.2}, {"measurement": "MFI", "setting": "[1]; Vardenafil 3.333 μM", "value": 131016}, {"measurement": "Stabilization ratio with Vardenafil", "setting": "[1]; Vardenafil 10 μM vs DMSO", "value": 12.2}, {"measurement": "MFI", "setting": "[1]; Vardenafil 10 μM", "value": 173576}, {"measurement": "Stabilization ratio with Vardenafil", "setting": "[1]; Vardenafil 30 μM vs DMSO", "value": 13.3}, {"measurement": "MFI", "setting": "[1]; Vardenafil 30 μM", "value": 188519}, {"measurement": "MFI", "setting": "[2]; DMSO (no Tadalafil)", "value": 12071}, {"measurement": "Basal expression", "setting": "[2]; Table 21, MFI with DMSO / parental HCT116, Tadalafil experiment", "value": 9.43}, {"measurement": "Stabilization ratio with Tadalafil", "setting": "[2]; Tadalafil 0.01 μM vs DMSO", "value": 1.0}, {"measurement": "MFI", "setting": "[2]; Tadalafil 0.01 μM", "value": 11635}, {"measurement": "Stabilization ratio with Tadalafil", "setting": "[2]; Tadalafil 0.02 μM vs DMSO", "value": 1.0}, {"measurement": "MFI", "setting": "[2]; Tadalafil 0.02 μM", "value": 11690}, {"measurement": "Stabilization ratio with Tadalafil", "setting": "[2]; Tadalafil 0.05 μM vs DMSO", "value": 1.0}, {"measurement": "MFI", "setting": "[2]; Tadalafil 0.05 μM", "value": 12100}, {"measurement": "Stabilization ratio with Tadalafil", "setting": "[2]; Tadalafil 0.14 μM vs DMSO", "value": 1.0}, {"measurement": "MFI", "setting": "[2]; Tadalafil 0.14 μM", "value": 12331}, {"measurement": "Stabilization ratio with Tadalafil", "setting": "[2]; Tadalafil 0.41 μM vs DMSO", "value": 1.1}, {"measurement": "MFI", "setting": "[2]; Tadalafil 0.41 μM", "value": 13422}, {"measurement": "Stabilization ratio with Tadalafil", "setting": "[2]; Tadalafil 1.23 μM vs DMSO", "value": 1.3}, {"measurement": "MFI", "setting": "[2]; Tadalafil 1.23 μM", "value": 16255}, {"measurement": "Stabilization ratio with Tadalafil", "setting": "[2]; Tadalafil 3.7 μM vs DMSO", "value": 2.0}, {"measurement": "MFI", "setting": "[2]; Tadalafil 3.7 μM", "value": 24201}, {"measurement": "Stabilization ratio with Tadalafil", "setting": "[2]; Tadalafil 11.11 μM vs DMSO", "value": 3.5}, {"measurement": "MFI", "setting": "[2]; Tadalafil 11.11 μM", "value": 42644}, {"measurement": "Stabilization ratio with Tadalafil", "setting": "[2]; Tadalafil 33.33 μM vs DMSO", "value": 6.6}, {"measurement": "MFI", "setting": "[2]; Tadalafil 33.33 μM", "value": 80088}, {"measurement": "Stabilization ratio with Tadalafil", "setting": "[2]; Tadalafil 100 μM vs DMSO", "value": 8.6}, {"measurement": "MFI", "setting": "[2]; Tadalafil 100 μM", "value": 104032}, {"measurement": "MFI", "setting": "[3]; DMSO (no Sildenafil)", "value": 13747}, {"measurement": "Stabilization ratio with Sildenafil", "setting": "[3]; Sildenafil 0.01 μM vs DMSO", "value": 0.9}, {"measurement": "MFI", "setting": "[3]; Sildenafil 0.01 μM", "value": 12801}, {"measurement": "Stabilization ratio with Sildenafil", "setting": "[3]; Sildenafil 0.02 μM vs DMSO", "value": 1.0}, {"measurement": "MFI", "setting": "[3]; Sildenafil 0.02 μM", "value": 14045}, {"measurement": "Stabilization ratio with Sildenafil", "setting": "[3]; Sildenafil 0.05 μM vs DMSO", "value": 1.0}, {"measurement": "MFI", "setting": "[3]; Sildenafil 0.05 μM", "value": 13801}, {"measurement": "Stabilization ratio with Sildenafil", "setting": "[3]; Sildenafil 0.14 μM vs DMSO", "value": 1.0}, {"measurement": "MFI", "setting": "[3]; Sildenafil 0.14 μM", "value": 14048}, {"measurement": "Stabilization ratio with Sildenafil", "setting": "[3]; Sildenafil 0.41 μM vs DMSO", "value": 1.2}, {"measurement": "MFI", "setting": "[3]; Sildenafil 0.41 μM", "value": 16175}, {"measurement": "Stabilization ratio with Sildenafil", "setting": "[3]; Sildenafil 1.23 μM vs DMSO", "value": 1.5}, {"measurement": "MFI", "setting": "[3]; Sildenafil 1.23 μM", "value": 20410}, {"measurement": "Stabilization ratio with Sildenafil", "setting": "[3]; Sildenafil 3.70 μM vs DMSO", "value": 2.2}, {"measurement": "MFI", "setting": "[3]; Sildenafil 3.70 μM", "value": 30372}, {"measurement": "Stabilization ratio with Sildenafil", "setting": "[3]; Sildenafil 11.11 μM vs DMSO", "value": 4.3}, {"measurement": "MFI", "setting": "[3]; Sildenafil 11.11 μM", "value": 59723}, {"measurement": "Stabilization ratio with Sildenafil", "setting": "[3]; Sildenafil 33.33 μM vs DMSO", "value": 7.2}, {"measurement": "MFI", "setting": "[3]; Sildenafil 33.33 μM", "value": 99558}, {"measurement": "Stabilization ratio with Sildenafil", "setting": "[3]; Sildenafil 100.00 μM vs DMSO", "value": 8.6}, {"measurement": "MFI", "setting": "[3]; Sildenafil 100.00 μM", "value": 117792}, {"measurement": "Basal expression", "setting": "[3]; Table 26, MFI with DMSO / parental HCT116, Sildenafil experiment", "value": 10.7}]}
